Measured values: patent publication US5789431A, “Naphthoquinone antitumor compound and method” (The University of North Carolina at Chapel Hill, priority 1996, dated 1998)

Experiments:
[1] = system: MDA-N; test: in vitro breast cancer cell growth inhibition (NCI screen)
[2] = system: OVCAR-3; test: in vitro ovarian cancer cell growth inhibition (NCI screen)
[3] = system: SK-MEL-28; test: in vitro melanoma cell growth inhibition (NCI screen)
[4] = system: HOP-62; test: in vitro non-small cell lung cancer cell growth inhibition (NCI screen)
[5] = system: KM 12; test: in vitro colon cancer cell growth inhibition (NCI screen)
[6] = system: HCT-116; test: as above
[7] = system: TK-10; test: in vitro renal cancer cell growth inhibition (NCI screen)
[8] = system: NCI-H522; test: in vitro non-small cell lung cancer cell growth inhibition (NCI screen)
[9] = system: EKVX; test: as above
[10] = system: OVCAR-4; test: in vitro ovarian cancer cell growth inhibition (NCI screen); conditions: OVACR-4
[11] = system: SK-MEL-5; test: in vitro melanoma cell growth inhibition (NCI screen)
[12] = system: PC-3; test: in vitro prostate cancer cell growth inhibition (NCI screen)
[13] = system: SN12C; test: in vitro renal cancer cell growth inhibition (NCI screen)
[14] = system: RXF-393; test: as above
[15] = system: SNB-75; test: in vitro CNS cancer cell growth inhibition (NCI screen)
[16] = system: HL-60(TB); test: in vitro leukemia cell growth inhibition (NCI screen)
[17] = system: RPMI-8226; test: as above
[18] = system: M19-MEL; test: in vitro melanoma cell growth inhibition (NCI screen)
[19] = system: MALME-3M; test: as above
[20] = system: RXF-631; test: in vitro renal cancer cell growth inhibition (NCI screen)
[21] = system: ACHN; test: as above
[22] = system: UO-31; test: as above
[23] = system: NCI-H460; test: in vitro non-small cell lung cancer cell growth inhibition (NCI screen)
[24] = system: HOP-92; test: as above
[25] = system: UACC-257; test: in vitro melanoma cell growth inhibition (NCI screen)
[26] = system: SF-539; test: in vitro CNS cancer cell growth inhibition (NCI screen)
[27] = system: CCRF-CEM; test: in vitro leukemia cell growth inhibition (NCI screen)
[28] = system: MCF-7; test: in vitro breast cancer cell growth inhibition (NCI screen)
[29] = system: SK-MEL-2; test: in vitro melanoma cell growth inhibition (NCI screen)
[30] = system: UACC-62; test: as above
[31] = system: SF-295; test: in vitro CNS cancer cell growth inhibition (NCI screen)
[32] = system: SF-268; test: as above
[33] = system: M14; test: in vitro melanoma cell growth inhibition (NCI screen)
[34] = system: NCI-H23; test: in vitro non-small cell lung cancer cell growth inhibition (NCI screen)
[35] = system: XF-498; test: in vitro CNS cancer cell growth inhibition (NCI screen)
[36] = system: NCI-H266; test: in vitro non-small cell lung cancer cell growth inhibition (NCI screen)
[37] = system: DLD-1; test: in vitro colon cancer cell growth inhibition (NCI screen)
[38] = system: SR; test: in vitro leukemia cell growth inhibition (NCI screen)
[39] = system: MOLT-4; test: as above
[40] = system: U 251; test: in vitro CNS cancer cell growth inhibition (NCI screen)
[41] = system: COLO-205; test: in vitro colon cancer cell growth inhibition (NCI screen)
[42] = system: SW 620; test: as above
[43] = system: LOX1MVI; test: in vitro melanoma cell growth inhibition (NCI screen)
[44] = system: K-562; test: in vitro leukemia cell growth inhibition (NCI screen)
[45] = system: 786-0; test: in vitro renal cancer cell growth inhibition (NCI screen)
[46] = system: SNB-19; test: in vitro CNS cancer cell growth inhibition (NCI screen)
[47] = system: HCT-15; test: in vitro colon cancer cell growth inhibition (NCI screen)
[48] = system: human tumor cell lines; format: cell-based; conditions: cancer cell line panel

Structure (SMILES)	cytotoxicity log GI50 [1] [M]	cytotoxicity log GI50 [2] [M]	cytotoxicity log GI50 [4] [M]	cytotoxicity log GI50 [6] [M]	cytotoxicity log GI50 [8] [M]	cytotoxicity log GI50 [9] [M]	cytotoxicity log GI50 [10] [M]	cytotoxicity log GI50 [14] [M]	cytotoxicity log GI50 [16] [M]	cytotoxicity log GI50 [17] [M]	cytotoxicity log GI50 [18] [M]	cytotoxicity log GI50 [19] [M]	cytotoxicity log GI50 [20] [M]	cytotoxicity log GI50 [24] [M]	cytotoxicity log GI50 [25] [M]	cytotoxicity log GI50 [26] [M]	cytotoxicity log GI50 [27] [M]	cytotoxicity log GI50 [29] [M]	cytotoxicity log GI50 [30] [M]	cytotoxicity log GI50 [37] [M]	also measured
CCNC1=C(NC(=O)CCl)C(=O)c2ccccc2C1=O [Compound 44]	-4.81	-4.75	-4.78	-4.74	-4.82	-4.80	-4.77	-4.78	–	–	–	–	–	–	–	–	–	–	–	–	cytotoxicity log GI50 [3]: -4.75 M; cytotoxicity log GI50 [5]: -4.77 M; cytotoxicity log GI50 [7]: -4.75 M; cytotoxicity log GI50 [11]: -4.78 M; cytotoxicity log GI50 [12]: -4.80 M; cytotoxicity log GI50 [13]: -4.75 M
CCn1c(Cc2ccc(F)cc2)nc2c1C(=O)c1ccccc1C2=O [Compound 66]	–	–	–	–	-5.06	–	–	–	-5.33	-4.94	-5.02	-4.94	-4.82	-4.97	-5.10	-4.88	-5.08	–	–	–	cytotoxicity log GI50 [15]: -4.80 M; cytotoxicity log GI50 [21]: -4.85 M; cytotoxicity log GI50 [22]: -5.33 M; cytotoxicity log GI50 [23]: -4.90 M
O=C(O)CCCc1nc2c(n1Cc1ccccc1)C(=O)c1ccccc1C2=O [Compound 57]	-4.65	-4.67	–	-4.54	-4.53	-4.50	-4.69	–	-4.54	-4.73	–	-4.80	–	–	-4.60	–	-5.28	-4.83	-4.76	–	cytotoxicity log GI50 [28]: -4.53 M; cytotoxicity log GI50 [31]: -4.59 M; cytotoxicity log GI50 [32]: -4.58 M; cytotoxicity log GI50 [33]: -5.43 M; cytotoxicity log GI50 [34]: -4.50 M
CCC(c1ccc(F)cc1)c1nc2c(n1CC)C(=O)c1ccccc1C2=O (centres unmarked) [Compound 65]	–	–	–	–	–	–	–	-4.83	-4.74	-4.68	–	–	-4.71	-4.75	–	–	–	-4.77	-4.95	-5.69	cytotoxicity log GI50 [35]: -4.70 M; cytotoxicity log GI50 [36]: -4.82 M; cytotoxicity log GI50 [38]: -4.73 M; cytotoxicity log GI50 [39]: -4.73 M; cytotoxicity log GI50 [40]: -4.71 M; cytotoxicity log GI50 [13]: -4.90 M
COc1ccc(CNC2=C(NC(C)=O)C(=O)c3ccccc3C2=O)cc1 [Compound 41]	–	-5.09	–	-5.29	-5.86	–	-5.09	–	-5.77	–	-5.02	-5.08	-5.19	-5.18	-5.06	-5.13	-5.06	-5.04	-5.11	-5.07	cytotoxicity log GI50 [41]: -5.03 M; cytotoxicity log GI50 [21]: -5.68 M; cytotoxicity log GI50 [22]: -5.02 M; cytotoxicity log GI50 [42]: -5.09 M; cytotoxicity log GI50 [43]: -5.07 M; cytotoxicity log GI50 [44]: -5.11 M; cytotoxicity log GI50 [39]: -5.43 M; cytotoxicity log GI50 [11]: -5.13 M; cytotoxicity log GI50 [34]: -5.17 M
NC1=C(NC(=O)Cc2ccccc2F)C(=O)c2ccccc2C1=O [Compound 3b]	–	-5.08	-4.59	–	-4.67	–	–	-4.46	–	–	-5.35	-4.87	–	-4.65	-4.53	-4.57	–	-4.84	-4.42	-4.78	cytotoxicity log GI50 [45]: -4.57 M; cytotoxicity log GI50 [15]: -4.73 M; cytotoxicity log GI50 [46]: -4.45 M; cytotoxicity log GI50 [47]: -4.62 M; cytotoxicity log GI50 [31]: -4.49 M; cytotoxicity log GI50 [32]: -4.46 M; cytotoxicity log GI50 [40]: -4.44 M; cytotoxicity against tumor cells (in words) [48]: inactive against all representative cancer cell lines
